Results published in patent publication US20250064090A1 (priority 2020, published 2025).
Read-outs that look alike come from different tables or passages of the source.

How the values were obtained:
[1] = test system: E. coli strains HT-99 (donor) and J53R (receptor); assay type: cell-based, Escherichia coli; settings: for Class of ingredient by conjugation frequency compared to control (in words): single ingredient, 100 mg/L, from Table 1
HT99 or J53R cells = assay type: cell-based, E. coli

Compound | Conjugation frequency ([1]; 3 hours, 37° C.) | Conjugation frequency ([1]; citral alone or mixed with conjugation inhibitors (100 mg of each per mL stock, 10 μL in 10 mL), control 0.0014) | Class of ingredient by conjugation frequency compared to control (in words) [1] | Conjugation frequency [1] | expression of the yqfA gene (hemolysin III family protein) (HT99 or J53R cells) | fatty acid biosynthesis (fabB) gene expression upon treatment with oleic acid (HT99 or J53R cells) | fatty acid degradation (fadB) gene expression upon treatment with oleic acid (HT99 or J53R cells) | Conjugation compared to control (in words) ([1]; result in words)
CC(C)=CCCC(C)=CC=O [Citral, citral] | 0.0023 | 0.0028 | conjugation enhancers |  |  |  |  | 
Cc1ccc(C(C)C)cc1O [Carvacrol, carvacrol] | 0.0044 |  | conjugation enhancers | 0.0052 |  |  |  | 
O=C(OC[C@H]1O[C@@H](OC(=O)c2cc(O)c(O)c(OC(=O)c3cc(O)c(O)c(O)c3)c2)[C@H](OC(=O)c2cc(O)c(O)c(OC(=O)c3cc(O)c(O)c(O)c3)c2)[C@@H](OC(=O)c2cc(O)c(O)c(OC(=O)c3cc(O)c(O)c(O)c3)c2)[C@@H]1OC(=O)c1cc(O)c(O)c(OC(=O)c2cc(O)c(O)c(O)c2)c1)c1cc(O)c(O)c(OC(=O)c2cc(O)c(O)c(O)c2)c1 [Tannic acid, tannic acid] | 0.00007 |  | conjugation inhibitors |  |  |  |  | 
CCCCCCCC/C=C\CCCCCCCC(=O)O [Oleic acid, oleic acid] | 0.00011 |  | conjugation inhibitors |  | reduced | inhibition | inducing | 
C=CC(C)(O)CCC=C(C)C (stereo not drawn) [Linalool, linalool] | 0.00085 |  | conjugation inhibitors |  |  |  |  | 
Cc1ccc(C(C)C)c(O)c1 [Thymol, thymol] | 0.0019 |  | conjugation enhancers |  |  |  |  | 
O=CC=Cc1ccccc1 [Cinnamaldehyde, cinnamaldehyde] | 0.0011 |  | conjugation inert ingredient | 0.0014 |  |  |  | not affected
